From patent US10604490B2, “Processes for preparing ASK1 inhibitors” (Gilead Sciences, Inc., priority 2014, dated 2020)
In brackets after ≈: the same amount, converted by molar mass. Where two headings read alike, the source gives them in different places. One block for each compound: values may come before it.

How the values were obtained:
[1] = Hydrate screen: solubility in EtOH/water mixtures with different water activities; assay type: physicochemical; conditions: thermodynamic from solid, slurry at room temperature
Procedure: A hydrate screen of Compound of Formula (D) was performed using a mixture of anhydrous forms of Compound of Formula (D) Form II and of Compound of Formula (D) Form I and EtOH/water solvent mixtures with different water activities (Table 1). Compound of Formula (D) Form II and Compound of Formula (D) Form I (about 20 to about 40 mg) was slurried in about 1 mL of EtOH/water or water. Samples were analyzed after about 1 day and after about 2 weeks of equilibration at room temperature. Pure anhydrous Compound of Formula (D) Form I was obtained after 1 day in mixtures with about 0.2 to about 0.4 water activity. However, after 2 weeks of equilibration a new form was obtained in EtOH/water with 0.4 water activity. This form was designated as Compound of Formula (D) Form III. Compound of Formula (D) hydrate Form I was obtained in solvents with about 0.5 to about 1.0 water activity after 1 day and after about 2 weeks.

[2] = DVS analysis (moisture uptake); assay type: physicochemical; conditions: at 90% RH
Procedure: Compound of Formula (D) Form I was obtained after the isothermal hold of Compound of Formula (D) hydrate Form I at about 150° C. Compound of Formula (D) Form I was also obtained after KF analysis of Compound of Formula (D) Form II and Compound of Formula (D) Form I at about 180° C. Slurries of Compound of Formula (D) hydrate Form I in water miscible organic solvents also afforded Compound of Formula (D) Form I (MeCN, MeOH, EtOH, IPA, acetone, and THF). […] (FIG. 10). DSC thermogram afforded single endotherm with onset at about 252° C. (FIG. 11). […] No form change was observed after DVS.

[3] = slurry at room temperature
Procedure: (§1) A stable form screen of Compound of Formula (D) hydrate Form I was performed in an attempt to determine the stability of Compound of Formula (D) hydrate Form I in different organic solvents. […] Compound of Formula (D) hydrate Form I (about 50 to about 60 mg) was slurried in about 1 mL of chosen solvent. Solids were analyzed by XRPD after about 1 day and about 2 weeks of equilibration at room temperature.
as §1, with “in” for “in about”, “after” for “after about”, “and” for “and about”

- Solubility ([1]; EtOH/water solvent mixture, aqueous with cosolvent or surfactant or cyclodextrin, EtOH/water, water activity 0.9 (water 0.825 mL, EtOH 0.175 mL)): 3930 µg/mL (≈ 15.1 mM)
- Solubility ([1]; EtOH/water solvent mixture, organic solvent or mixture, EtOH/water, water activity 0.2 (water 0.031 mL, EtOH 0.969 mL)): 7270 µg/mL (≈ 27.9 mM)
- Solubility ([1]; EtOH/water solvent mixture, organic solvent or mixture, EtOH/water, water activity 0.3 (water 0.066 mL, EtOH 0.934 mL)): 8060 µg/mL (≈ 31 mM)
- Solubility ([1]; EtOH/water solvent mixture, organic solvent or mixture, EtOH/water, water activity 0.4 (water 0.077 mL, EtOH 0.923 mL)): 7860 µg/mL (≈ 30.2 mM)
- Solubility ([1]; EtOH/water solvent mixture, organic solvent or mixture, EtOH/water, water activity 0.5 (water 0.097 mL, EtOH 0.903 mL)): 8160 µg/mL (≈ 31.4 mM)
- Solubility ([1]; EtOH/water solvent mixture, organic solvent or mixture, EtOH/water, water activity 0.6 (water 0.149 mL, EtOH 0.851 mL)): 6590 µg/mL (≈ 25.3 mM)
- Solubility ([1]; EtOH/water solvent mixture, organic solvent or mixture, EtOH/water, water activity 0.7 (water 0.263 mL, EtOH 0.737 mL)): 6880 µg/mL (≈ 26.4 mM)
- Solubility ([1]; EtOH/water solvent mixture, organic solvent or mixture, EtOH/water, water activity 0.8 (water 0.481 mL, EtOH 0.519 mL)): 6560 µg/mL (≈ 25.2 mM)
- Solubility ([1]; water, water activity 1.0 (water 1.0 mL, EtOH 0)): 3320 µg/mL (≈ 12.8 mM)
Structure (SMILES): Cc1cc(F)c(C(=O)O)cc1-n1cnc(C2CC2)c1 [5-(4-cyclopropyl-1H-imidazol-1-1-2-fluoro-4-methylbenzoic acid]

- moisture uptake (DVS; slightly hygroscopic) [2]: about 0.5%
Structure (SMILES): Cc1cc(F)c(C(=O)O)cc1-n1cnc(C2CC2)c1 [Compound of Formula (D) Form I]

- Solubility ([3]; solvent 2-MeTHF): 4.48 mg/mL
- Solubility ([3]; solvent Acetone): 1.99 mg/mL
- Solubility ([3]; solvent DCM): 0.19 mg/mL
- Solubility ([3]; solvent EtOAc): 0.73 mg/mL
- Solubility ([3]; solvent EtOH): 6.18 mg/mL
- Solubility ([3]; solvent IPA): 2.90 mg/mL
- Solubility ([3]; solvent IPAc): 0.45 mg/mL
- Solubility ([3]; solvent MeCN): 0.40 mg/mL
- Solubility ([3]; solvent MeOH): 20.67 mg/mL
- Solubility ([3]; solvent THF): 11.79 mg/mL
Structure (SMILES): Cc1cc(F)c(C(=O)O)cc1-n1cnc(C2CC2)c1.O [Compound of Formula (D) Hydrate Form I]
